Measurements as given in patent publication US20090130239A1, “METHOD FOR PREVENTING OR TREATING EDEMA OR DERMATITIS USING GLEHNIA LITTORALIS FR. SCHMIDT ET MIQUEL EXTRACT” (Korea Institute of Oriental Medicine, priority 2007, published 2009).

Tested on: TPA induced immune cell infiltration and epidermal hyperproliferation
Assay: Histopathological analysis of ear tissues (H&E), TPA induced acute dermatitis
Assay type: in vivo, mouse
Settings: ear tissue, 6 hours after TPA, extract 400 mg/kg, indomethacin 10 mg/kg, compared with TPA treated group
Procedure: C57BL/6J male mouse at 5 weeks (DAE HAN BIOLINK CO., LTD.), the most widely used inflammation animal model, was adapted to the experimental environment for 1 week. Total 40 mice were group into 4 (10 mice per each group). TPA (12-O-Tetrade-canoylphobol 13-acetate) was locally applied (2.5 ug/20 ul acetone) to the right ears of 6 week old mice to induce edema and dermatitis. The left ears of the mice were used as the negative control, to which an excipient (20 ul of acetone) was treated. The experimental group was treated with Glehnia littoralis Fr. Schmidt et Miquel extract (400 mg/kg) by intraperitoneal injection one hour before TPA treatment. The positive control group was administered with indomethacin (10 mg/kg) one hour before TPA treatment and the negative control was administered with saline by the same manner.
Inflammation was induced for 6 hours by the same manner as described in Experimental Example <1-1> and then the animal was sacrificed. […] In the […], edema and inflammation accompanying symptoms of migration and infiltration of polymorphonuclear leukocytes were induced. In the meantime, in the experimental group (C) administered with Glehnia littoralis Fr. […]

SMILES: COc1ccc2c(c1)c(CC(=O)O)c(C)n2C(=O)c1ccc(Cl)cc1 [indomethacin]
- infiltration of immune cells and epidermal hyperproliferation: inhibition
